Measured values as given in publication PMC11928584, “H105A peptide eye drops promote photoreceptor survival in murine and human models of retinal degeneration” (Communications Medicine, 2025).
Where a SMILES comes first, the peptide text is derived from it.

Tests used:
[1] = test system: human iPSC-derived retinal organoids exposed to CSE; experiment: Ethidium homodimer staining of live retinal organoids (3D-ARQ); assay type: cell-based; conditions: D180 ROs, 24 h, mean ± SD, n=14
Experimental: Human iPSCs were differentiated into retinal organoids (ROs) following the protocol by Zhong et al.[41]. Briefly, on Day 0, hiPSC colonies were dissociated with dispase and grown in a suspension to form embryoid bodies, and slowly transitioned to neural induction media (DMEM/F12 (1:1), 1% N2 supplement (Invitrogen), 1 x minimum essential media-nonessential amino acids (NEAAs), 2 µg/ml heparin (Sigma)). On Day 7, EBs were seeded on Matrigel coated plates and maintained in neural induction media. On Day 16, the media was switched to the retinal differentiation medium (DMEM/F12 (3:1), 2% B27 (without vitamin A, Invitrogen), 1x NEAA and 1% antibiotic–antimycotic (Gibco)). Retinal domains were identified and lifted manually with tungsten needles between Day 21 and Day 26 under a phase contrast microscope. On day 30, the culture medium was transitioned to DMEM/F12 (3:1) with 2% B27, 1x NEAA, 1% antibiotic–antimycotic, 10% fetal bovine serum (FBS; Gibco), […] Taurine (Sigma), and 2 mM GlutaMAX (Invitrogen). Additionally, 1 µM retinoic acid supplement was introduced daily starting from day 63. […]
After treatment, ROs were washed in PBS (Gibco, 14190-144) and the auto-fluorescent background was measured by 3D-automated reporter quantification (3D-ARQ)[42], using a Tecan Spark Plate reader (SparkControl v2.3). The Z-position was determined manually by selecting the individual well and fluorescent intensity was measured using the optimized parameters below. […] After incubation, ROs were washed three times with PBS, and fluorescence intensity was measured by 3D-ARQ using the following parameters: Mode: Fluorescent top reading; Wavelength for PSVue-794: Excitation: Emission 730:820 nm, Excitation bandwidth: 10 nm, Emission bandwidth: 15 nm; Wavelength for Ethidium Homodimer: Excitation: Emission 530:630 nm, Excitation bandwidth: 5 nm, Emission bandwidth: 5 nm; Gain: 160, Manual; Number of flashes: 20; integration time: 40 µs; lag time 0 µs. […] Results were analysed after background subtraction; n = 19-24 ROs per condition. […]

[2] = test system: photoreceptors of rd10/Serpinf1-/- mice; experiment: ONL thickness (histology, spider plot), rd10/Serpinf1-/- mice; assay type: in vivo, mouse; conditions: daily eye drops, P21
Experimental: Both eyes were oriented before enucleation to allow sectioning along the dorsal/ventral axis. Enucleated eyes from rd10 and rd10/Serpinf1^-/- mice were incised in the cornea and fixed in 2.5% glutaraldehyde for 20 min and then in 10% neutral buffered formalin at 4 °C for at least 48 h, followed by paraffin embedding, sectioning, and staining with either H&E or immunofluorescence procedures. […] For fluorescence microscopy, antibodies, and 0.1 µg/ml DAPI were used to immunostain and counterstain the nuclei, respectively. […] Fluorescence intensity was quantified using ImageJ, and a rectangle was selected around regions of interest (ROIs), channels were split for multiple antibodies, threshold was adjusted, noise was de-speckled, and fluorescence intensity was measured.
To generate spider plots, the ONL thickness was measured from images passing through the optic nerve (ON) acquired with light microscopy of the retina sections stained with H&E or images of retina sections stained with DAPI with a dorsal-ventral orientation. The ONL thickness in the entire retina sections was measured at 5 different positions from both sides of the ON using ImageJ[28]. […]

| SMILES | Fluorescence intensity of Ethidium homodimer ([1]; CSE 500 µg/ml + peptide 20 nM) [RFU] | OS length and ONL thickness vs vehicle-treated or untreated eyes [2] | Fluorescence intensity of Ethidium homodimer ([1]; CSE 500 µg/ml + peptide 1 nM) [RFU] |
| --- | --- | --- | --- |
| CC[C@H](C)[C@H](NC(=O)[C@H](CC(C)C)NC(=O)[C@H](CC(=O)O)NC(=O)[C@H](Cc1ccc(O)cc1)NC(=O)[C@H](Cc1ccc(O)cc1)NC(=O)[C@H](CC(C)C)NC(=O)[C@H](C)NC(=O)[C@H](CCCNC(=N)N)NC(=O)[C@H](Cc1c[nH]cn1)NC(=O)[C@@H](NC(=O)[C@@H](NC(=O)[C@H](CO)NC(=O)[C@H](CCC(=O)O)NC(=O)[C@@H](NC(=O)[C@H](C)NC(=O)[C@@H](N)CCC(N)=O)[C@@H](C)O)[C@@H](C)CC)[C@@H](C)CC)C(=O)N[C@@H](CO)C(=O)O [R99A] (H-QATESIIHRALYYDLIS-OH) | 1283.2 ± 67.6 | no effect |  |
| CC[C@H](C)[C@H](NC(=O)[C@H](CC(C)C)NC(=O)[C@H](CC(=O)O)NC(=O)[C@H](Cc1ccc(O)cc1)NC(=O)[C@H](Cc1ccc(O)cc1)NC(=O)[C@H](CC(C)C)NC(=O)[C@H](C)NC(=O)[C@H](CCCNC(=N)N)NC(=O)[C@H](C)NC(=O)[C@@H](NC(=O)[C@@H](NC(=O)[C@H](CO)NC(=O)[C@H](CCC(=O)O)NC(=O)[C@@H](NC(=O)[C@H](CCCNC(=N)N)NC(=O)[C@@H](N)CCC(N)=O)[C@@H](C)O)[C@@H](C)CC)[C@@H](C)CC)C(=O)N[C@@H](CO)C(=O)O [H105A] (H-QRTESIIARALYYDLIS-OH) | 919.2 ± 46.0 | longer OS and thicker outer nuclear layer | 848.9 ± 51.0 |
